Assay results from BigSolDB 2.1.

O=C(O)COc1ccc(Cl)cc1
solubility (mole fraction)
Details	283.15 K	288.15 K	293.15 K	298.15 K	303.15 K	308.15 K	313.15 K	318.15 K	323.15 K
in 1,4-dioxane	–	0.113	0.124	0.135	0.146	0.16	0.176	0.194	0.212
in acetonitrile	0.00781	0.00938	0.0114	0.0134	0.0159	0.0198	0.0241	0.0298	0.0359
in ethanol	0.0308	0.0347	0.0406	0.0472	0.0545	0.0643	0.0796	0.0962	0.114
in ethyl acetate	0.0266	0.0303	0.036	0.0413	0.0468	0.0537	0.0637	0.0731	0.0827
in ethyl formate	0.0139	0.0164	0.0193	0.0223	0.0254	0.0299	0.036	0.0423	0.0487
in isobutanol	0.0146	0.0178	0.0224	0.0286	0.0365	0.0453	0.0558	0.0688	0.0843
in isopropanol	0.0214	0.0267	0.0324	0.039	0.0476	0.0586	0.0703	0.0844	0.0997
in methyl acetate	0.0285	0.0325	0.0379	0.0433	0.0496	0.0567	0.0659	0.0766	0.0882
in n-butanol	0.0243	0.0282	0.0343	0.0415	0.0501	0.0604	0.0721	0.0855	0.101
in n-butyl acetate	0.0218	0.0246	0.0289	0.0334	0.0387	0.0446	0.0514	0.0593	0.0682
in n-propanol	0.0255	0.0292	0.0348	0.0415	0.0506	0.0618	0.0748	0.089	0.11
in n-propyl acetate	0.0235	0.0268	0.0303	0.035	0.0398	0.0454	0.0524	0.0604	0.0698
in sec-butanol	0.0224	0.0279	0.034	0.0413	0.0505	0.0617	0.0745	0.0888	0.107
